Data taken from patent US20230303549A1, “SUBSTITUTED HETEROARYLOXYPYRIDINES, THE SALTS THEREOF AND THEIR USE AS HERBICIDAL AGENTS” (Bayer Aktiengesellschaft, priority 2020, published 2023).

Assays:
Assay type in all cases: in vivo
[1] = system: Amaranthus retroflexus (AMARE); assay: Post-emergence herbicidal efficacy at 80 g/ha, greenhouse pot test; details: visual rating vs untreated control after about 3 weeks
Description: (§1) Seeds of monocotyledonous and dicotyledonous weeds and crop plants were placed in sandy loam in plastic or organic planting pots, covered with soil and cultivated in a greenhouse under controlled growth conditions. 2 to 3 weeks after sowing, the test plants were treated at the one-leaf stage. The compounds of the invention, formulated in the form of wettable powders (WP) or as emulsion concentrates (EC), were then sprayed onto the green parts of the plants as aqueous suspension or emulsion with addition of 0.5% additive at a water application rate of 600 l/ha (converted). After the test plants had been kept in the greenhouse under optimum growth conditions for about 3 weeks, the activity of the preparations was rated visually in comparison to untreated controls. For example, 100% activity=the plants have died, 0% activity=like control plants. Tables B1 to B6 below show the effects of selected compounds of the general formula (I) according to Table 1 on various harmful plants and an application rate corresponding to 80 g/ha, which were obtained by the experimental procedure mentioned above.

Viola tricolor (VIOTR) [2] = assay: as above; details: visual rating vs untreated control after about 3 weeks
Description: as §1

[3] = system: Alopecurus myosuroides (ALOMY); assay: as above; details: visual rating vs untreated control after about 3 weeks
Description: as §1

[4] = system: Amaranthus retroflexus (AMARE); assay: Pre-emergence herbicide efficacy at 80 g/ha, greenhouse pot test; details: visual scoring vs untreated control after about 3 weeks
Excerpt: (§2) Seeds of monocotyledonous and dicotyledonous weed plants and crop plants were placed in plastic or organic planting pots and covered with soil. The compounds of the invention, formulated in the form of wettable powders (WP) or as emulsion concentrates (EC), were then applied to the surface of the covering soil as aqueous suspension or emulsion with addition of 0.5% additive at a water application rate of […] (converted). After the treatment, the pots were placed in a greenhouse and kept under good growth conditions for the test plants. After about 3 weeks, the effect of the preparations was scored visually in comparison with untreated controls as percentages. For example, 100% activity=the plants have died, 0% activity=like control plants. Tables D1 to D12 below show the effects of selected compounds of the general formula (I) according to Table 1 on various harmful plants and an application rate corresponding to 80 g/ha, which were obtained by the experimental procedure mentioned above.

[5] = system: Abutilon theophrasti (ABUTH); assay: as above; details: visual scoring vs untreated control after about 3 weeks
Excerpt: as §2

Viola tricolor (VIOTR) [6] = assay: as above; details: visual scoring vs untreated control after about 3 weeks
Excerpt: as §2

[7] = system: Polygonum convolvulus (POLCO); assay: as above; details: visual scoring vs untreated control after about 3 weeks
Excerpt: as §2

[8] = system: Alopecurus myosuroides (ALOMY); assay: as above; details: visual scoring vs untreated control after about 3 weeks
Excerpt: as §2

Veronica persica (VERPE) [9] = assay: as above; details: visual scoring vs untreated control after about 3 weeks
Excerpt: as §2

[10] = system: Digitaria sanguinalis (DIGSA); assay: Pre-emergence herbicide efficacy at 320 g/ha, greenhouse pot test; details: visual scoring vs untreated control after about 3 weeks
Method in brief: (§3)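 Sandy loam pots held seeds of a single weed species each. The test compound was sprayed pre-emergence in 600 L/ha water with 0.5% additive. Effect was rated visually in % against untreated controls after ~3 weeks.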

[11] = system: Amaranthus retroflexus (AMARE); assay: as above; details: visual scoring vs untreated control after about 3 weeks
Method in brief: as §3

[12] = system: Abutilon theophrasti (ABUTH); assay: as above; details: visual scoring vs untreated control after about 3 weeks
Method in brief: as §3

Lolium rigidum (LOLRI) = assay: as above; details: visual scoring vs untreated control after about 3 weeks
Method in brief: as §3

Poa annua (POAAN) [13] = assay: as above; details: visual scoring vs untreated control after about 3 weeks
Method in brief: as §3

[14] = system: Echinochloa crus-galli (ECHCG); assay: as above; details: visual scoring vs untreated control after about 3 weeks
Method in brief: as §3

[15] = system: Alopecurus myosuroides (ALOMY); assay: as above; details: visual scoring vs untreated control after about 3 weeks
Method in brief: as §3

Setaria viridis (SETVI) [16] = assay: as above; details: visual scoring vs untreated control after about 3 weeks
Method in brief: as §3

Veronica persica (VERPE) [17] = assay: as above; details: visual scoring vs untreated control after about 3 weeks
Method in brief: as §3

[18] = system: Matricaria inodora (MATIN); assay: as above; details: visual scoring vs untreated control after about 3 weeks
Method in brief: as §3

Bassia scoparia (KCHSC) [19] = assay: as above; details: 320 g/ha, visual scoring vs untreated control after about 3 weeks
Method in brief: as §3

Stellaria media (STEME) [20] = assay: as above; details: visual scoring vs untreated control after about 3 weeks
Method in brief: as §3

[21] = system: Amaranthus retroflexus (AMARE); assay: Post-emergence herbicidal efficacy at 320 g/ha, greenhouse pot test; details: visual rating vs untreated control after about 3 weeks
Method in brief: (§4)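 Weeds sown in sandy loam and grown in greenhouse, sprayed at one-leaf stage (2–3 weeks after sowing) with WP or EC formulations plus 0.5% additive in 600 L/ha water. Visual activity rated after about 3 weeks against untreated controls (100% = plants dead, 0% = like control).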

[22] = system: Alopecurus myosuroides (ALOMY); assay: as above; details: visual rating vs untreated control after about 3 weeks
Method in brief: as §4

Veronica persica (VERPE) [23] = assay: as above; details: 320 g/ha, visual rating vs untreated control after about 3 weeks
Method in brief: as §4

Stellaria media (STEME) [24] = assay: as above; details: visual rating vs untreated control after about 3 weeks
Method in brief: as §4

[25] = system: Polygonum convolvulus (POLCO); assay: Post-emergence herbicidal efficacy at 80 g/ha, greenhouse pot test; details: visual rating vs untreated control after about 3 weeks
Description: as §1

Veronica persica (VERPE) [26] = assay: as above; details: visual rating vs untreated control after about 3 weeks
Description: as §1

[27] = system: Digitaria sanguinalis (DIGSA); assay: Pre-emergence herbicide efficacy at 80 g/ha, greenhouse pot test; details: visual scoring vs untreated control after about 3 weeks
Excerpt: as §2

[28] = system: Matricaria inodora (MATIN); assay: as above; details: visual scoring vs untreated control after about 3 weeks
Excerpt: as §2

[29] = system: Digitaria sanguinalis (DIGSA); assay: Post-emergence herbicidal efficacy at 320 g/ha, greenhouse pot test; details: visual rating vs untreated control after about 3 weeks
Method in brief: as §4

[30] = system: Abutilon theophrasti (ABUTH); assay: as above; details: visual rating vs untreated control after about 3 weeks
Method in brief: as §4

Poa annua (POAAN) [31] = assay: as above; details: visual rating vs untreated control after about 3 weeks
Method in brief: as §4

Bassia scoparia (KCHSC) [32] = assay: as above; details: visual rating vs untreated control after about 3 weeks
Method in brief: as §4

Setaria viridis (SETVI) [33] = assay: Pre-emergence herbicide efficacy at 80 g/ha, greenhouse pot test; details: visual scoring vs untreated control after about 3 weeks
Excerpt: as §2

SMILES | Post-emergence efficacy against Amaranthus retroflexus (AMARE) [1] [%] | Post-emergence efficacy against Viola tricolor (VIOTR) (Viola tricolor (VIOTR) [2]) [%] | Post-emergence efficacy against Alopecurus myosuroides (ALOMY) [3] [%] | Pre-emergence efficacy against Amaranthus retroflexus (AMARE) [4] [%] | Pre-emergence efficacy against Abutilon theophrasti (ABUTH) [5] [%] | Pre-emergence efficacy against Viola tricolor (VIOTR) (Viola tricolor (VIOTR) [6]) [%] | Pre-emergence efficacy against Polygonum convolvulus (POLCO) [7] [%] | Pre-emergence efficacy against Veronica persica (VERPE) (Veronica persica (VERPE) [9]) [%] | Pre-emergence efficacy against Digitaria sanguinalis (DIGSA) [10] [%] | Pre-emergence efficacy against Amaranthus retroflexus (AMARE) [11] [%] | Pre-emergence efficacy against Abutilon theophrasti (ABUTH) [12] [%] | Pre-emergence efficacy against Poa annua (POAAN) (Poa annua (POAAN) [13]) [%] | Pre-emergence efficacy against Echinochloa crus-galli (ECHCG) [14] [%] | Pre-emergence efficacy against Alopecurus myosuroides (ALOMY) [15] [%] | Pre-emergence efficacy against Setaria viridis (SETVI) (Setaria viridis (SETVI) [16]) [%] | Pre-emergence efficacy against Veronica persica (VERPE) (Veronica persica (VERPE) [17]) [%] | Pre-emergence efficacy against Matricaria inodora (MATIN) [18] [%] | Pre-emergence efficacy against Bassia scoparia (KCHSC) (Bassia scoparia (KCHSC) [19]) [%] | Pre-emergence efficacy against Stellaria media (STEME) (Stellaria media (STEME) [20]) [%] | Post-emergence efficacy against Veronica persica (VERPE) (Veronica persica (VERPE) [23]) [%] | further results
Cc1cc(C)c(-c2cc(C(F)(F)F)no2)c(Oc2ncc(Cl)cn2)n1 [Example I-2] | 100 | 90 | 90 | 100 | 90 | 90 | 80 | 90 | 100 | 100 | 100 | 100 | 100 | 100 | 100 | 100 | 100 | 90 | 100 | 100 | Pre-emergence efficacy against Alopecurus myosuroides (ALOMY) [8]: 80%; Pre-emergence efficacy against Lolium rigidum (LOLRI) (Lolium rigidum (LOLRI)): 90%; Post-emergence efficacy against Amaranthus retroflexus (AMARE) [21]: 100%; Post-emergence efficacy against Alopecurus myosuroides (ALOMY) [22]: 90%; Post-emergence action against Stellaria media (STEME) (Stellaria media (STEME) [24]): 100%
Cc1cc(C)c(-c2cc(C(F)F)on2)c(Oc2ncc(F)cn2)n1 [Example I-3] | 90 | 100 | 90 | 100 |  | 100 | 90 | 80 | 100 | 100 | 100 | 100 | 100 | 100 | 100 | 100 | 100 | 100 | 100 | 100 | Post-emergence efficacy against Polygonum convolvulus (POLCO) [25]: 100%; Post-emergence efficacy against Veronica persica (VERPE) (Veronica persica (VERPE) [26]): 80%; Pre-emergence efficacy against Digitaria sanguinalis (DIGSA) [27]: 100%; Pre-emergence efficacy against Matricaria inodora (MATIN) [28]: 100%; Post-emergence efficacy against Digitaria sanguinalis (DIGSA) [29]: 90%; Post-emergence efficacy against Amaranthus retroflexus (AMARE) [21]: 90%; Post-emergence efficacy against Abutilon theophrasti (ABUTH) [30]: 90%; Post-emergence efficacy against Poa annua (POAAN) (Poa annua (POAAN) [31]): 100%; Post-emergence efficacy against Bassia scoparia (KCHSC) (Bassia scoparia (KCHSC) [32]): 100%; Post-emergence action against Stellaria media (STEME) (Stellaria media (STEME) [24]): 90%
Cc1cc(C)c(-c2cc(C(F)Cl)no2)c(Oc2ncc(Cl)cn2)n1 (centres unmarked) [Example I-5] | 100 | 80 | 80 | 100 | 90 | 90 | 90 | 90 | 100 | 100 | 100 | 100 | 90 | 100 | 100 | 90 | 100 | 100 | 100 | 100 | Pre-emergence efficacy against Alopecurus myosuroides (ALOMY) [8]: 90%; Pre-emergence efficacy against Setaria viridis (SETVI) (Setaria viridis (SETVI) [33]): 90%; Pre-emergence efficacy against Matricaria inodora (MATIN) [28]: 90%; Post-emergence efficacy against Digitaria sanguinalis (DIGSA) [29]: 90%; Post-emergence efficacy against Amaranthus retroflexus (AMARE) [21]: 100%; Post-emergence efficacy against Alopecurus myosuroides (ALOMY) [22]: 100%; Post-emergence efficacy against Bassia scoparia (KCHSC) (Bassia scoparia (KCHSC) [32]): 90%; Post-emergence action against Stellaria media (STEME) (Stellaria media (STEME) [24]): 90%
Cc1cc(C)c(-c2cc(C(F)F)on2)c(Oc2ncc(Cl)cn2)n1 [Example I-10] |  | 100 | 80 | 90 | 90 | 100 | 90 |  | 90 | 100 | 100 | 90 | 100 |  | 90 | 100 | 100 | 90 | 100 | 90 | Pre-emergence efficacy against Digitaria sanguinalis (DIGSA) [27]: 90%; Pre-emergence efficacy against Matricaria inodora (MATIN) [28]: 90%; Pre-emergence efficacy against Lolium rigidum (LOLRI) (Lolium rigidum (LOLRI)): 90%; Post-emergence efficacy against Digitaria sanguinalis (DIGSA) [29]: 100%; Post-emergence efficacy against Poa annua (POAAN) (Poa annua (POAAN) [31]): 100%
